Data: patent US5602176A, “Phenyl carbamate” (priority 1987, dated 1997)
Where two headings read alike, the source gives them in different places.

How the values were obtained:
[1] = molecular target: T1, AChE preparations of different rat brain regions (Rattus norvegicus, UniProt P37136); assay: Acetylcholinesterase inhibition in different rat brain regions (in vitro, Ellman); format: biochemical; conditions: table 1
T1 construct: Rat brain tissue is homogenized in cold phosphate buffer pH 7.3; from tissue; host or cells: rat brain (cortex, hippocampus, striatum), supernatant of Triton X-100 homogenate
Procedure: Acetylcholinesterase inhibition in different rat brain regions
AChE preparations of different rat brain regions (Cortex, hippocampus and striatum) are used in this test and the IC50 (inhibitory concentrations in μM) are determined. The enzyme preparations are preincubated with the inhibitor 15 minutes before the determination.
(§1) The AChE activity is measured according to the method described by Ellman (Arch. Biochem. Biophys. 82, 70, 1959). Rat brain tissue is homogenized in cold phosphate buffer pH 7.3 (0.25 mM) containing 0.1% of Triton X-100. After centrifugation aliquots of the clear supernatant is used as enzyme source. The enzyme is preincubated with different concentrations of the inhibitor. After different times, substrate (acetylthiocholinjodide 0.5 mM) is added and the remaining activity determined.

[2] = tested on: dopamine metabolism in striatum; assay: Influence on dopamine metabolism; format: in vivo, rat
Procedure: Influence on dopamine metabolism
Male OFA rats (150-200 g) were used both for acute and subchronic experiments. The animals are maintained under 12 hour periods of light and dark. The animals are sacrificed always between 11.00 and 13.00 h. The brains are excised immediately, dissected on ice according to the method of GLOWINSKI and IVERSEN, J. Neurochem. 13, 655 (1966), frozen on dry ice and the tissue samples stored at -80° C. until analysis.
Dopamine and its metabolites DOPAC (3,4-dihydroxyphenylacetic acid) and HVA (homovanillic acid) are determined in brain tissue extracts which are obtained by homogenisation of the stored brain tissue samples in 0.1N HCl containing 0.05 mM ascorbic acid and subsequent centrifugation. Striatal and cortical tissues are used.
The determination of the metabolites is performed using either the gas chromatography/mass fragmentography (GCMS) technique as described by KAROUM et al., J. Neurochem. 25, 653 (1975) and CATABENI et al., Science 178, 166 (1972) or the fluorometric method as described by […] and MAITRE, Analyt. Biochem. 51, 474 (1973). For the GCMS method, tissue extracts are prepared by adding known amounts of deuterated monoamines and their respective metabolites as internal standards.

[3] = tested on: deoxyglucose (DOG) utilisation in the brain; assay: Muscarinic and nicotinic effects on brain glucose utilisation (deoxyglucose autoradiography); format: in vivo, rat; conditions: 7.5 μmol/kg p.o.
Description: Muscarinic and nicotinic effects on brain glucose utilisation
Changes in the functional activity of the CNS are associated with altered deoxyglucose (DOG) utilisation in the brain which can be visualised simultaneously in several brain regions using the autoradiographic method of Sokoloff et al., J. Neurochem. 28, 897 (1977). The administration of cholinergic drugs either direct (muscarinic agonists) or indirect (accumulation of acetylcholine) induces in this model a characteristic "fingerprint" pattern by modifying the regional glucose metabolism.
Male Wistar rats (150-200 g) are used. Drugs are administered at various doses and by different routes (i.v., p.o., i.p.) to animals. [14C]-2-deoxyglucose (125 μC/kg) is injected 45 min. before the animals are sacrificed. The brains are immediately excised, frozen at -80° C. and subsequently cut in slices with a thickness of 20 μm. The optical densities of the radiographic images are measured according to a modification of Sokoloff et al.

AChE [4] = molecular target: T2, AChE (Rattus norvegicus, UniProt P37136); assay: in vivo; parameters: Rat brain tissue is homogenized in cold phosphate buffer pH 7.3; from tissue; host or cells: rat brain (cortex, hippocampus, striatum), supernatant of Triton X-100 homogenate; conditions: for ED50: rat, po, 0.5 h
Procedure: as §1
Acetylcholinesterase inhibition ex vivo in different rat brain regions
The method is as disclosed above.

AChE [5] = molecular target: T2, AChE; assay: in vivo; format: in vivo; parameters: from tissue; host or cells: male OFA rats: cortex, hippocampus, striatum, pons/medulla, heart, blood; conditions: for remaining activity at 10 µmol/kg: rat, po
[6] = six hours after 10 μmol/kg p.o.
[7] = Subcutaneous 8 μmol/kg, 0.5 hours after treatment
[8] = Subcutaneous 8 μmol/kg, 6 hours after treatment
[9] = Subcutaneous 8 μmol/kg, 24 hours after treatment
[10] = Transdermal 30 μmol/kg, 0.5 hours after treatment
[11] = Transdermal 30 μmol/kg, 6 hours after treatment
[12] = Transdermal 30 μmol/kg, 24 hours after treatment

T2 sequence (P37136 32-614): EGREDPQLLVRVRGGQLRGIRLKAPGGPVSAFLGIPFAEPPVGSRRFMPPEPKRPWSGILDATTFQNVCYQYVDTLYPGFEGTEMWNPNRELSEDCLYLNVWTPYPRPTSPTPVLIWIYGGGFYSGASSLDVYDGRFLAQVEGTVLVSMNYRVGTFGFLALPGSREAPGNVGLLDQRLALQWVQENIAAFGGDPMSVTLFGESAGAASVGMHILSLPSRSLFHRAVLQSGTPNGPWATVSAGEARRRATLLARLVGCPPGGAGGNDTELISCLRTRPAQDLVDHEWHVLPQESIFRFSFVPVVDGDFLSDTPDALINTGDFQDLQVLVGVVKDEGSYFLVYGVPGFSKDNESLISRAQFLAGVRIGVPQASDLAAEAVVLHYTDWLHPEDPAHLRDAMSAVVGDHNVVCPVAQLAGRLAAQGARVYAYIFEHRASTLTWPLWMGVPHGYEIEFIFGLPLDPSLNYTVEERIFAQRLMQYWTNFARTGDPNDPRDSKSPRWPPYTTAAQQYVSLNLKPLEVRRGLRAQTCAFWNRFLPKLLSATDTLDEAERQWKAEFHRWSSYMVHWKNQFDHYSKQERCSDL
T1 sequence (P37136 32-614): as above

## CCN(C)C(=O)Oc1cccc([C@H](C)N(C)C)c1 [Compound A, (S)-N-ethyl-3-[(1-dimethylamino)ethyl]-N-methyl-phenyl-carbamate]
[1]
  AChE inhibition in vitro, comparison in words: slightly superior than that with racemate C
[2]; following administration
  dopamine metabolism in striatum: increased
[2]; rat, in vivo
  enhancing the striatal dopamine metabolite concentration, comparison: more active than compound B and racemate C
[3]
  changes in DOG utilisation in various rat brain regions: significant changes in DOG utilisation
AChE [4]; read-out: IC50 ex vivo AChE, cortex
  ED50: 2 µmol/kg
AChE [4]; read-out: IC50 ex vivo AChE, hippocampus
  ED50: 4 µmol/kg
AChE [4]; read-out: IC50 ex vivo AChE, striatum
  ED50: 7 µmol/kg
AChE [4]; [6]
  AChE inhibition ex vivo, cortex: 39%
  AChE inhibition ex vivo, hippocampus: 44%
  AChE inhibition ex vivo, striatum: 16%
AChE [5]; [7]
  AChE activity in % of controls ± SD, Blood: 17.4 ± 4.1 % of controls
  AChE activity in % of controls ± SD, Cortex: 16.8 ± 2.0 % of controls
  AChE activity in % of controls ± SD, Heart: 33.3 ± 5.6 % of controls
  AChE activity in % of controls ± SD, Hippocampus: 18.3 ± 3.1 % of controls
  AChE activity in % of controls ± SD, Pons/Medulla: 20.9 ± 2.9 % of controls
  AChE activity in % of controls ± SD, Striatum: 28.2 ± 12.2 % of controls
AChE [5]; [8]
  AChE activity in % of controls ± SD, Blood: 79.5 ± 8.2 % of controls
  AChE activity in % of controls ± SD, Cortex: 85.1 ± 1.6 % of controls
  AChE activity in % of controls ± SD, Heart: 51.0 ± 17.9 % of controls
  AChE activity in % of controls ± SD, Hippocampus: 81.4 ± 7.6 % of controls
  AChE activity in % of controls ± SD, Pons/Medulla: 87.1 ± 4.1 % of controls
  AChE activity in % of controls ± SD, Striatum: 82.9 ± 2.8 % of controls
AChE [5]; [9]
  AChE activity in % of controls ± SD, Blood: 105.7 ± 16.8 % of controls
  AChE activity in % of controls ± SD, Cortex: 93.8 ± 5.9 % of controls
  AChE activity in % of controls ± SD, Heart: 65.7 ± 21.2 % of controls
  AChE activity in % of controls ± SD, Hippocampus: 99.9 ± 9.9 % of controls
  AChE activity in % of controls ± SD, Pons/Medulla: 98.7 ± 6.0 % of controls
  AChE activity in % of controls ± SD, Striatum: 91.0 ± 2.3 % of controls
AChE [5]; [10]
  AChE activity in % of controls ± SD, Cortex: 86.1 ± 5.6 % of controls
  AChE activity in % of controls ± SD, Heart: 109.0 ± 9.3 % of controls
  AChE activity in % of controls ± SD, Hippocampus: 86.7 ± 5.9 % of controls
  AChE activity in % of controls ± SD, Pons/Medulla: 91.5 ± 3.8 % of controls
  AChE activity in % of controls ± SD, Striatum: 89.7 ± 8.4 % of controls
AChE [5]; [11]
  AChE activity in % of controls ± SD, Blood: 41.9 ± 13.1 % of controls
  AChE activity in % of controls ± SD, Heart: 52.0 ± 13.1 % of controls
  AChE activity in % of controls ± SD, Hippocampus: 45.7 ± 15.0 % of controls
  AChE activity in % of controls ± SD, Pons/Medulla: 53.6 ± 13.3 % of controls
AChE [5]; [12]
  AChE activity in % of controls ± SD, Cortex: 73.8 ± 5.7 % of controls
  AChE activity in % of controls ± SD, Heart: 63.9 ± 12.5 % of controls
  AChE activity in % of controls ± SD, Hippocampus: 80.4 ± 8.8 % of controls
  AChE activity in % of controls ± SD, Pons/Medulla: 85.3 ± 4.2 % of controls
  AChE activity in % of controls ± SD, Striatum: 81.0 ± 8.2 % of controls
AChE [5]; oral
  time of maximal AChE inhibition: 15 min
AChE [5]; read-out: AChE activity in % of controls ± SD, Blood, Oral 10 μmol/kg, 0.5 hours after treatment
  remaining activity at 10 µmol/kg: 34 ± 2%
AChE [5]; read-out: AChE activity in % of controls ± SD, Blood, Oral 10 μmol/kg, 6 hours after treatment
  remaining activity at 10 µmol/kg: 77.2 ± 14.7%
AChE [5]; read-out: AChE activity in % of controls ± SD, Blood, Oral 10 μmol/kg, 24 hours after treatment
  remaining activity at 10 µmol/kg: 97.2 ± 13.8%
AChE [5]; read-out: AChE activity in % of controls ± SD, Cortex, Oral 10 μmol/kg, 0.5 hours after treatment
  remaining activity at 10 µmol/kg: 21 ± 3.5%
AChE [5]; read-out: AChE activity in % of controls ± SD, Cortex, Oral 10 μmol/kg, 6 hours after treatment
  remaining activity at 10 µmol/kg: 65.3 ± 21.3%
AChE [5]; read-out: AChE activity in % of controls ± SD, Cortex, Oral 10 μmol/kg, 24 hours after treatment
  remaining activity at 10 µmol/kg: 99.2 ± 8.9%
AChE [5]; read-out: AChE activity in % of controls ± SD, Heart, Oral 10 μmol/kg, 0.5 hours after treatment
  remaining activity at 10 µmol/kg: 71.2 ± 11.2%
AChE [5]; read-out: AChE activity in % of controls ± SD, Heart, Oral 10 μmol/kg, 6 hours after treatment
  remaining activity at 10 µmol/kg: 101 ± 7%
AChE [5]; read-out: AChE activity in % of controls ± SD, Heart, Oral 10 μmol/kg, 24 hours after treatment
  remaining activity at 10 µmol/kg: 94.2 ± 9.2%
AChE [5]; read-out: AChE activity in % of controls ± SD, Hippocampus, Oral 10 μmol/kg, 0.5 hours after treatment
  remaining activity at 10 µmol/kg: 19.7 ± 3.8%
AChE [5]; read-out: AChE activity in % of controls ± SD, Hippocampus, Oral 10 μmol/kg, 6 hours after treatment
  remaining activity at 10 µmol/kg: 62 ± 15.4%
AChE [5]; read-out: AChE activity in % of controls ± SD, Hippocampus, Oral 10 μmol/kg, 24 hours after treatment
  remaining activity at 10 µmol/kg: 97.2 ± 7.1%
AChE [5]; read-out: AChE activity in % of controls ± SD, Pons/Medulla, Oral 10 μmol/kg, 0.5 hours after treatment
  remaining activity at 10 µmol/kg: 26.6 ± 4%
AChE [5]; read-out: AChE activity in % of controls ± SD, Pons/Medulla, Oral 10 μmol/kg, 6 hours after treatment
  remaining activity at 10 µmol/kg: 80.3 ± 9.2%
AChE [5]; read-out: AChE activity in % of controls ± SD, Pons/Medulla, Oral 10 μmol/kg, 24 hours after treatment
  remaining activity at 10 µmol/kg: 104 ± 6.8%
AChE [5]; read-out: AChE activity in % of controls ± SD, Striatum, Oral 10 μmol/kg, 0.5 hours after treatment
  remaining activity at 10 µmol/kg: 32.9 ± 10.7%
AChE [5]; read-out: AChE activity in % of controls ± SD, Striatum, Oral 10 μmol/kg, 6 hours after treatment
  remaining activity at 10 µmol/kg: 87.5 ± 8.8%
AChE [5]; read-out: AChE activity in % of controls ± SD, Striatum, Oral 10 μmol/kg, 24 hours after treatment
  remaining activity at 10 µmol/kg: 96.7 ± 3.3%
AChE [5]; subcutaneous
  time of maximal AChE inhibition: 30 min
AChE [5]; transdermal
  AChE inhibition after transdermal administration: long-lasting, dose-dependent inhibition of AChE activity
  time of maximal AChE inhibition: > 120 min
AChE [5]; twenty four hours after oral application
  AChE activity: has no effect on the enzyme
AChE [5]; twenty four hours after s.c. application
  AChE activity: only the enzyme in the heart is significantly inhibited
AChE [5]; twenty four hours after transdermal application
  AChE activity: still inhibited in central and peripheral regions
